± gives the expanded uncertainty stated by the source.
Key:
[1] = mn = molality of the nth substance listed, in mol/kg; conditions: 303.15 K, 101 kPa, Liquid, Linear variable-path acoustic interferometer
[2] = cn = amount concentration of the nth substance listed, in mol/dm3; conditions: 101 kPa, Liquid; for viscosity: Capillary tube (Ostwald / Ubbelohde) method; for mass density: Pycnometric method
[3] = refractive index (Na D-line) (dimensionless); mn = molality of the nth substance listed, in mol/kg; conditions: 303.15 K, 101 kPa, Liquid, Standard Abbe refractometry
[4] = wn = mass fraction of the nth substance listed; conditions: 101 kPa, Liquid; for viscosity: Capillary tube (Ostwald / Ubbelohde) method; for speed of sound: Linear variable-path acoustic interferometer; for mass density: Pycnometric method
[5] = refractive index (Na D-line) (dimensionless); wn = mass fraction of the nth substance listed; conditions: 303.15 K, 101 kPa, Liquid, Standard Abbe refractometry
[6] = 101 kPa, Liquid; for viscosity: Capillary tube (Ostwald / Ubbelohde) method; for mass density: Pycnometric method
[7] = refractive index (Na D-line) (dimensionless); conditions: 303.15 K; 101.33 kPa; Liquid; Standard Abbe refractometry

## CC(C)[C@@H]1CC[C@@H](C)C[C@H]1O [DL-menthol] + CC(C)O
[1]; m1 = 0.0323
  speed of sound: 1135.7 ± 2.8 m/s
[1]; m1 = 0.0453
  speed of sound: 1138.2 ± 2.8 m/s
[1]; m1 = 0.0584
  speed of sound: 1141.2 ± 2.8 m/s
[1]; m1 = 0.0715
  speed of sound: 1144.4 ± 2.8 m/s
[1]; m1 = 0.0978
  speed of sound: 1151.1 ± 2.8 m/s
[1]; m1 = 0.111
  speed of sound: 1154.2 ± 2.8 m/s
[2]; 303.15 K, c1 = 0.025
  viscosity: 1.757 ± 0.022 mPa·s
  mass density: 777.6 ± 0.8 kg/m3
[2]; 303.15 K, c1 = 0.035
  viscosity: 1.761 ± 0.022 mPa·s
  mass density: 777.8 ± 0.8 kg/m3
[2]; 303.15 K, c1 = 0.045
  viscosity: 1.766 ± 0.022 mPa·s
  mass density: 778 ± 0.8 kg/m3
[2]; 303.15 K, c1 = 0.055
  viscosity: 1.771 ± 0.022 mPa·s
  mass density: 778.3 ± 0.8 kg/m3
[2]; 303.15 K, c1 = 0.075
  viscosity: 1.781 ± 0.022 mPa·s
  mass density: 778.8 ± 0.8 kg/m3
[2]; 303.15 K, c1 = 0.085
  viscosity: 1.785 ± 0.022 mPa·s
  mass density: 779.1 ± 0.8 kg/m3
[2]; 313.15 K, c1 = 0.0247
  viscosity: 1.34 ± 0.017 mPa·s
  mass density: 768.8 ± 0.8 kg/m3
[2]; 313.15 K, c1 = 0.0346
  viscosity: 1.344 ± 0.017 mPa·s
  mass density: 769 ± 0.8 kg/m3
[2]; 313.15 K, c1 = 0.0445
  viscosity: 1.349 ± 0.017 mPa·s
  mass density: 769.2 ± 0.8 kg/m3
[2]; 313.15 K, c1 = 0.0544
  viscosity: 1.355 ± 0.017 mPa·s
  mass density: 769.5 ± 0.8 kg/m3
[2]; 313.15 K, c1 = 0.0742
  viscosity: 1.364 ± 0.017 mPa·s
  mass density: 770 ± 0.8 kg/m3
[2]; 313.15 K, c1 = 0.084
  viscosity: 1.368 ± 0.017 mPa·s
  mass density: 770.3 ± 0.8 kg/m3
[2]; 323.15 K, c1 = 0.0243
  viscosity: 1.012 ± 0.013 mPa·s
  mass density: 756.4 ± 0.8 kg/m3
[2]; 323.15 K, c1 = 0.034
  viscosity: 1.017 ± 0.013 mPa·s
  mass density: 756.6 ± 0.8 kg/m3
[2]; 323.15 K, c1 = 0.0438
  viscosity: 1.022 ± 0.013 mPa·s
  mass density: 756.8 ± 0.8 kg/m3
[2]; 323.15 K, c1 = 0.0535
  viscosity: 1.026 ± 0.013 mPa·s
  mass density: 757.1 ± 0.8 kg/m3
[2]; 323.15 K, c1 = 0.073
  viscosity: 1.034 ± 0.013 mPa·s
  mass density: 757.7 ± 0.8 kg/m3
[2]; 323.15 K, c1 = 0.0827
  viscosity: 1.039 ± 0.013 mPa·s
  mass density: 758 ± 0.8 kg/m3
[3]; m1 = 0.0323
  refractive index: 1.3741 ± 0.0009
[3]; m1 = 0.0453
  refractive index: 1.3744 ± 0.0009
[3]; m1 = 0.0584
  refractive index: 1.3747 ± 0.0009
[3]; m1 = 0.0715
  refractive index: 1.375 ± 0.0009
[3]; m1 = 0.0978
  refractive index: 1.3755 ± 0.0009
[3]; m1 = 0.111
  refractive index: 1.3757 ± 0.0009

## COC(=O)c1ccccc1O [methyl 2-hydroxybenzoate] + CC(C)O
[4]; 303.15 K, w1 = 0.05
  viscosity: 1.798 ± 0.011 mPa·s
  speed of sound: 1146.8 ± 1.7 m/s
  mass density: 790.9 ± 0.2 kg/m3
[4]; 303.15 K, w1 = 0.1
  viscosity: 1.846 ± 0.012 mPa·s
  speed of sound: 1170.6 ± 1.8 m/s
  mass density: 805.3 ± 0.2 kg/m3
[4]; 303.15 K, w1 = 0.15
  viscosity: 1.961 ± 0.013 mPa·s
  speed of sound: 1197.7 ± 1.8 m/s
  mass density: 822.4 ± 0.3 kg/m3
[4]; 313.15 K, w1 = 0.05
  viscosity: 1.379 ± 0.009 mPa·s
  mass density: 782.8 ± 0.3 kg/m3
[4]; 313.15 K, w1 = 0.1
  viscosity: 1.437 ± 0.0094 mPa·s
  mass density: 794.3 ± 0.3 kg/m3
[4]; 313.15 K, w1 = 0.15
  viscosity: 1.56 ± 0.01 mPa·s
  mass density: 812 ± 0.3 kg/m3
[4]; 323.15 K, w1 = 0.05
  viscosity: 1.048 ± 0.007 mPa·s
  mass density: 770.3 ± 0.3 kg/m3
[4]; 323.15 K, w1 = 0.1
  viscosity: 1.103 ± 0.0074 mPa·s
  mass density: 785.1 ± 0.3 kg/m3
[4]; 323.15 K, w1 = 0.15
  viscosity: 1.227 ± 0.0082 mPa·s
  mass density: 799.3 ± 0.3 kg/m3
[5]; w1 = 0.05
  refractive index: 1.3791 ± 0.0005
[5]; w1 = 0.1
  refractive index: 1.3852 ± 0.0005
[5]; w1 = 0.15
  refractive index: 1.3912 ± 0.0005

## CC(C)O [propan-2-ol]
[6]; 303.15 K
  viscosity: 1.747 ± 0.011 mPa·s
  mass density: 777.1 ± 0.2 kg/m3
[6]; 303.15 K, Linear variable-path acoustic interferometer
  speed of sound: 1130.6 ± 1.7 m/s
[6]; 313.15 K
  viscosity: 1.33 ± 0.0086 mPa·s
  mass density: 768.4 ± 0.2 kg/m3
[6]; 323.15 K
  viscosity: 1.003 ± 0.0067 mPa·s
  mass density: 756 ± 0.3 kg/m3
[7]
  refractive index: 1.3736 ± 0.0005

## CC(C)O [propan-2-ol] + COC(=O)c1ccccc1O
[4]; 303.15 K, w2 = 0
  viscosity: 1.747 ± 0.011 mPa·s
  speed of sound: 1130.6 ± 1.7 m/s
  mass density: 777.1 ± 0.2 kg/m3
[4]; 313.15 K, w2 = 0
  viscosity: 1.33 ± 0.0086 mPa·s
  mass density: 768.4 ± 0.2 kg/m3
[4]; 323.15 K, w2 = 0
  viscosity: 1.003 ± 0.0067 mPa·s
  mass density: 756 ± 0.3 kg/m3
[5]; w2 = 0
  refractive index: 1.3736 ± 0.0005

Reference: the NIST ThermoML archive (doi:10.1016/j.tca.2009.12.001)
